# Results taken from ChEMBL document CHEMBL4346735, “Discovery and pharmacological evaluation of indole derivatives as potent and selective RORγt inverse agonist for multiple autoimmune conditions” (Bioorg Med Chem Lett, 2019).
# Columns and labels:
# Splenocyte = assay: Cytotoxicity against mouse splenocytes assessed as cell viability incubated for 6 days in presence of anti-CD4/anti-IFNgamma/TGFbeta/IL-6; type: cell-based; settings: 144 h
# Mus musculus [1] = assay: (§1) Immunosuppressive activity in MOG (35 to 55 residues)/pertussis toxin-induced experimental allergic encephalomyelitis C57BL/6J mouse model assessed as reduction in disease severity score at 30 mg/kg, po bid measured at day 21 relative to dexamethasone; type: functional; settings: 504 h
# [2] = Oral bioavailability in mouse at 10 mg/kg; type: ADME, organism-based; settings: in vivo
# HepG2 = assay: Cytotoxicity against human HepG2 cells
# Mus musculus [3] = assay: as §1, with “IL-17A gene expression in spinal cord” for “disease severity score”, “23 post MOG immunization/pertusis immunization” for “21”, “control” for “dexamethasone”; type: functional; settings: 552 h
# [4] = Mutagenicity in Salmonella typhimurium by mini Ames test; type: toxicity; settings: salmonella enterica subsp. enterica serovar typhimurium
# Mus musculus [5] = assay: as §1, with “IL-17A gene expression in spinal cord” for “disease severity score”, “19 post MOG immunization/pertusis immunization” for “21”, “control” for “dexamethasone”; type: functional; settings: 456 h
# Mus musculus [6] = assay: Immunosuppressive activity in MOG (35 to 55 residues)/pertussis toxin-induced experimental allergic encephalomyelitis C57BL/6J mouse model assessed as reduction in disease severity score at 3 mg/kg, po bid measured at day 23 relative to dexamethasone; type: functional; settings: 552 h
# [7] = Volume of distribution at steady state in mouse at 3 mg/kg, iv; type: ADME, organism-based; settings: in vivo, read-out: Vdss
# [8] = AUC in mouse liver at 10 mg/kg, po; type: ADME, organism-based
# [9] = Metabolic stability in mouse liver microsomes assessed as parent compound remaining at 1 uM preincubated for 5 mins followed by NADPH addition after 30 mins by LC-MS/MS analysis; type: ADME, Microsome; settings: read-out: Stability
# [10] = Tmax in mouse at 10 mg/kg, po; type: ADME, organism-based; settings: in vivo
# Mus musculus [11] = assay: as §1, with “CCR6 gene expression in spinal cord” for “disease severity score”, “19 post MOG immunization/pertusis immunization” for “21”, “control” for “dexamethasone”; type: functional; settings: 456 h
# [12] = Metabolic stability in simulated gastric fluid assessed as compound remaining after 15 mins; type: ADME; settings: read-out: Stability
# [13] = Metabolic stability in simulated intestinal fluid assessed as compound remaining after 30 mins; type: ADME; settings: read-out: Stability
# [14] = Metabolic stability in simulated gastric fluid assessed as compound remaining after 30 mins; type: ADME; settings: read-out: Stability
# [15] = Metabolic stability in simulated gastric fluid assessed as compound remaining after 60 mins; type: ADME; settings: read-out: Stability
# Mus musculus [16] = assay: as §1, with “IL-17F gene expression in spinal cord” for “disease severity score”, “19 post MOG immunization/pertusis immunization” for “21”, “control” for “dexamethasone”; type: functional; settings: 456 h
# [17] = Cmax in mouse at 10 mg/kg, po; type: ADME, organism-based; design: dose 10 mg/kg, route oral; settings: in vivo
# [18] = Metabolic stability in rat hepatocytes assessed as parent compound remaining after 60 mins; type: ADME, cell-based, Hepatocyte; settings: read-out: Stability
# [19] = Half life in mouse at 3 mg/kg, iv; type: ADME, organism-based; settings: in vivo
# [20] = Plasma protein binding in human; type: ADME; settings: read-out: PPB
# [21] = Metabolic stability in human liver microsomes assessed as parent compound remaining at 1 uM preincubated for 5 mins followed by NADPH addition after 30 mins by LC-MS/MS analysis; type: ADME, Microsome; settings: read-out: Stability
# [22] = Cytotoxicity against Balb/c mouse splenocytes assessed as cell viability in presence of anti-CD3/anti-CD28 measured after 24 hrs; type: cell-based, Splenocyte; settings: read-out: Activity
# [23] = Metabolic stability in simulated gastric fluid assessed as compound remaining after 45 mins; type: ADME; settings: read-out: Stability
# [24] = Metabolic stability in mouse hepatocytes assessed as parent compound remaining after 60 mins; type: ADME, cell-based, Hepatocyte; settings: read-out: Stability
# [25] = Plasma protein binding in dog; type: ADME, Canis lupus familiaris; settings: read-out: PPB
# [26] = Metabolic stability in rat liver microsomes assessed as parent compound remaining at 1 uM preincubated for 5 mins followed by NADPH addition after 30 mins by LC-MS/MS analysis; type: ADME, Microsome; settings: read-out: Stability
# [27] = Metabolic stability in simulated intestinal fluid assessed as compound remaining after 3 hrs; type: ADME; settings: read-out: Stability
# [28] = Metabolic stability in simulated intestinal fluid assessed as compound remaining after 15 mins; type: ADME; settings: read-out: Stability
# [29] = Metabolic stability in simulated intestinal fluid assessed as compound remaining after 60 mins; type: ADME; settings: read-out: Stability
# Mus musculus [30] = assay: Inhibition of anti-CD3-induced IL-17A level in Balb/c mouse plasma at 10 mg/kg, po treated prior to stimulation with anti-CD3 for 3 hrs relative to control; type: functional
# Mus musculus [31] = assay: as §1, with “GM-CSF gene expression in spinal cord” for “disease severity score”, “23 post MOG immunization/pertusis immunization” for “21”, “control” for “dexamethasone”; type: functional; settings: 552 h
# [32] = AUC in mouse skin at 10 mg/kg, po; type: ADME, organism-based, Zone of skin
# [33] = Transrepression of RORgammat in cytostim stimulated human whole blood assessed as suppression of IL-17 secretion incubated for 24 hrs; type: tissue-based
# Mus musculus [34] = assay: as §1, with “IL-22 gene expression in spinal cord” for “disease severity score”, “23 post MOG immunization/pertusis immunization” for “21”, “control” for “dexamethasone”; type: functional; settings: 552 h
# [35] = biological target: T1, Nuclear receptor ROR-alpha (Homo sapiens, UniProt P35398); assay: Inhibition of GAL4-DBD fused RORalpha LBD (unknown origin) expressed in HEK293T cells; type: cell-based
# T1 sequence (P35398 whole entry): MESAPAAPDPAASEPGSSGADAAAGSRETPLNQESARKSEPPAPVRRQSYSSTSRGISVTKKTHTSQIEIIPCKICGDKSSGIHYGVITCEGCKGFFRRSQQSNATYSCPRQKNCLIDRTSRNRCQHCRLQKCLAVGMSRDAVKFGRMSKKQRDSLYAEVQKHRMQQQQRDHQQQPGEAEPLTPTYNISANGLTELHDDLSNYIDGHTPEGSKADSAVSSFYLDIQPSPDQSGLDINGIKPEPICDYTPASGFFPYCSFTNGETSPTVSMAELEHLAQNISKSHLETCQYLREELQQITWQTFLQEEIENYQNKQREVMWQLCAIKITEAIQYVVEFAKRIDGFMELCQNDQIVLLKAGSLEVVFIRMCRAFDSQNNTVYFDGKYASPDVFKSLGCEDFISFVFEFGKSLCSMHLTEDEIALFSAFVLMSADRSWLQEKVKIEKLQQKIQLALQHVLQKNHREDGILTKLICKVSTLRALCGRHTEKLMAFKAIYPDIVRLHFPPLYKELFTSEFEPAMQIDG
# [36] = Metabolic stability in simulated intestinal fluid assessed as compound remaining after 2 hrs; type: ADME; settings: read-out: Stability
# [37] = Plasma protein binding in rat; type: ADME; settings: read-out: PPB
# [38] = Metabolic stability in dog hepatocytes assessed as parent compound remaining after 60 mins; type: ADME, cell-based, Canis lupus familiaris, Hepatocyte; settings: read-out: Stability
smiles,measurement,setting,value
O=C(O)c1ccc(-n2cc(C(=O)c3c(Cl)cccc3Cl)c3cccc(F)c32)cc1,Activity,Splenocyte,Non-Toxic
same,inhibition in vivo at 30 mg/kg,Mus musculus [1],26%
same,bioavailability,[2],72%
same,IC50,HepG2,> 50 µM
same,inhibition in vivo at 30 mg/kg,Mus musculus [3],43%
same,Activity,[4],Non-Toxic
same,inhibition in vivo at 30 mg/kg,Mus musculus [5],30%
same,inhibition in vivo at 3 mg/kg,Mus musculus [6],25%
same,Vd,[7],4.8 L/kg
same,AUC,[8],400 µM·h
same,"remaining at 0.5 h, 1 µM",[9],78%
same,Tmax,[10],0.5 h
same,inhibition in vivo at 30 mg/kg,Mus musculus [11],60%
same,remaining at […],[12],84%
same,remaining at 0.5 h,[13],100%
same,remaining at 0.5 h,[14],90%
same,remaining at 1 h,[15],93%
same,inhibition in vivo at 30 mg/kg,Mus musculus [16],70%
same,Cmax,[17],6.2 µM
same,remaining at 1 h,[18],57%
same,half-life,[19],2.4 h
same,fraction unbound,[20],< 0.03
same,"remaining at 0.5 h, 1 µM",[21],88%
same,viability at 24 h,[22],> 95%
same,remaining at 0.75 h,[23],93%
same,remaining at 1 h,[24],80%
same,fraction unbound,[25],0.01
same,"remaining at 0.5 h, 1 µM",[26],100%
same,remaining at 3 h,[27],100%
same,remaining at […],[28],100%
same,remaining at 1 h,[29],100%
same,inhibition in vivo at 10 mg/kg,Mus musculus [30],17%
same,inhibition in vivo at 30 mg/kg,Mus musculus [31],70%
same,AUC,[32],11 µM·h
same,IC50,[33],0.49 µM
same,inhibition in vivo at 30 mg/kg,Mus musculus [34],24%
same,IC50,[35],> 10 µM
same,remaining at 2 h,[36],99%
same,fraction unbound,[37],0.01
same,remaining at 1 h,[38],51%
